Results published in patent US20230390323A1, “SPRAYABLE ANTIVIRAL FORMULATION” (priority 2020, published 2023).

Test system: cells
Test: Cell compliance with the spray formulations
Assay type: cell-based
Method: A study was undertaken to determine cell compliance with the spray formulations over a 48 hour testing period. […] Dose-response was linear (R^2=0.96 and 0.97 for gellan and lambda-carrageenan, respectively), with reduced cell death as the systems became increasing more dilute.

## gellan
  Reduction in the number of living cells: 2 fold
